Laboratory results as given in ChEMBL document CHEMBL1154879, “Discovery of (thienopyrimidin-2-yl)aminopyrimidines as potent, selective, and orally available pan-PI3-kinase and dual pan-PI3-kinase/mTOR inhibitors for the treatment of cancer” (J Med Chem, 2010).

Experiments:
[1] = Antiproliferative activity against human MCF7.1 cells expressing PI3Kalpha mutant after 3 to 4 days; format: functional, cell-based
PC-3 = test: Antiproliferative activity against human PC3 cells deficient in PTEN in after 3 to 4 days; format: functional, cell-based
[2] = Clearance in Sprague-Dawley rat at 1 mg/kg, iv; format: ADME, organism-based; parameters: dose 1 mg/kg, route intravenous; conditions: in vivo
[3] = Oral bioavailability in Sprague-Dawley rat at 2 mg/kg; format: ADME, organism-based; conditions: in vivo
[4] = Clearance in Sprague-Dawley rat liver microsomes; format: ADME, Microsome
[5] = target: Serine/threonine-protein kinase mTOR (Homo sapiens, UniProt P42345)
[6] = target: Phosphatidylinositol 4,5-bisphosphate 3-kinase catalytic subunit alpha isoform (Homo sapiens, UniProt P42336)
[7] = target: Phosphatidylinositol 4,5-bisphosphate 3-kinase catalytic subunit beta isoform (Homo sapiens, UniProt P42338); test: Inhibition of recombinant PI3Kbeta assessed as PIP3 product formation by fluorescence polarization assay
[8] = target: T1, Phosphatidylinositol 4,5-bisphosphate 3-kinase catalytic subunit delta isoform (Homo sapiens, UniProt O00329)
T1 sequence (O00329 whole entry): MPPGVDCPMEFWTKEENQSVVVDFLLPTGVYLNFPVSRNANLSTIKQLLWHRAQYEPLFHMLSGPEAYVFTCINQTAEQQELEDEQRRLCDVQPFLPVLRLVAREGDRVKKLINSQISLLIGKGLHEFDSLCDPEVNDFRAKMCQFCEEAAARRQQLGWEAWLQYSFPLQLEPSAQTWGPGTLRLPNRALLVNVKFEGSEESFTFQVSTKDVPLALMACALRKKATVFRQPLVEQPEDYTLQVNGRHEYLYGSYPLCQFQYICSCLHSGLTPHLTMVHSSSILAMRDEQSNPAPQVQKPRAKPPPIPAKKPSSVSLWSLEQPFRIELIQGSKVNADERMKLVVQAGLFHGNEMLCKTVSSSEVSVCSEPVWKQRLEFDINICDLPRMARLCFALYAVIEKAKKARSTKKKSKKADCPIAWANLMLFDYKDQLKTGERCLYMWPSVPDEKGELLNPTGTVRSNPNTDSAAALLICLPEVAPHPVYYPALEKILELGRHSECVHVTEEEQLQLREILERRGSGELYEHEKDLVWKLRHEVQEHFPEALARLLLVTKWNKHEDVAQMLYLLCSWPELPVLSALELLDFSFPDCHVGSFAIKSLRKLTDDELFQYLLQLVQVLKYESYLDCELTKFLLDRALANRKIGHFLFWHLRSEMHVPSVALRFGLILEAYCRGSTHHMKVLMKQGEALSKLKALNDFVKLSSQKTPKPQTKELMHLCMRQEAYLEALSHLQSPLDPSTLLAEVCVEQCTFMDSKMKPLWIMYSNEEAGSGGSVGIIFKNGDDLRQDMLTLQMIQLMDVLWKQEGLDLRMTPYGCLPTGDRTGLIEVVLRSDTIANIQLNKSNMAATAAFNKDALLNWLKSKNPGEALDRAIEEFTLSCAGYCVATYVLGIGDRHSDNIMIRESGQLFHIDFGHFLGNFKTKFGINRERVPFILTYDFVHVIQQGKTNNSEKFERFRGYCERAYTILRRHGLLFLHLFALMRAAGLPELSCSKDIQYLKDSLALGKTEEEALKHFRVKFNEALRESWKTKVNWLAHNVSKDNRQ

[9] = target: Phosphatidylinositol 4,5-bisphosphate 3-kinase catalytic subunit gamma isoform (Homo sapiens, UniProt P48736)
[10] = Clearance in Beagle dog at 1 mg/kg, iv; format: ADME, organism-based, Canis lupus familiaris; parameters: dose 1 mg/kg, route intravenous; conditions: in vivo
[11] = Volume of distribution at steady state in Sprague-Dawley rat at 1 mg/kg, iv; format: ADME, organism-based; parameters: dose 1 mg/kg, route intravenous; conditions: in vivo, read-out: Vdss
[12] = Oral bioavailability in Sprague-Dawley rat at 5 mg/kg, po; format: ADME, organism-based; conditions: in vivo

Phosphatidylinositol 4,5-bisphosphate 3-kinase catalytic subunit beta isoform, sequence (P42338 whole entry, canonical isoform): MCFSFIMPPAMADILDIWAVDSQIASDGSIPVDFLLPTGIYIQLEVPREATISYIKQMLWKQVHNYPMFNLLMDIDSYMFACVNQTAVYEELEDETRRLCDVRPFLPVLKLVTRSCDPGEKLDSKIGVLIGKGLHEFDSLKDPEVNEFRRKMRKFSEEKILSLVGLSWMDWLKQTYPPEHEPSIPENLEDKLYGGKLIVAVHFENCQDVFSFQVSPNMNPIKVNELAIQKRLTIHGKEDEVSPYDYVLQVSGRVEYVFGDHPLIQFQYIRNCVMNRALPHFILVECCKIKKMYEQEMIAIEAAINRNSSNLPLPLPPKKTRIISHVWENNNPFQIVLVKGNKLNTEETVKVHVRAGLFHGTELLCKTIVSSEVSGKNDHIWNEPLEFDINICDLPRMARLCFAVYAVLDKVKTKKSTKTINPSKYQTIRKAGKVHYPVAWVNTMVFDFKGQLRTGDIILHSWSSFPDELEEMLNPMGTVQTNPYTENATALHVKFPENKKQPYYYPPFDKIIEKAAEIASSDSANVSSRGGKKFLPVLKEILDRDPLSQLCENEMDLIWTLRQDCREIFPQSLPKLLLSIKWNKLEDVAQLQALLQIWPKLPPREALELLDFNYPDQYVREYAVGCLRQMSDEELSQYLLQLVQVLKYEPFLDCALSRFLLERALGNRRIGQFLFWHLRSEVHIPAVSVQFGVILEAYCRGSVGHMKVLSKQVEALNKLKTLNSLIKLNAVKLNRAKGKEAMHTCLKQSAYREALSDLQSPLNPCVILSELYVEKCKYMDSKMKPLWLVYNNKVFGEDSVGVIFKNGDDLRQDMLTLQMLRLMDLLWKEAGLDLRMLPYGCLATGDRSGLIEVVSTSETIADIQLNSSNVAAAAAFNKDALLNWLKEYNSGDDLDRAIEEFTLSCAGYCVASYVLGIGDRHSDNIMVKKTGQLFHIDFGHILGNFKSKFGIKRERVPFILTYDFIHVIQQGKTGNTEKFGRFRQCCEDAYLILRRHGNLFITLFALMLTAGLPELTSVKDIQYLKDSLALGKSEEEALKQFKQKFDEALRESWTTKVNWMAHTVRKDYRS
Phosphatidylinositol 4,5-bisphosphate 3-kinase catalytic subunit alpha isoform, sequence (P42336 whole entry, canonical isoform): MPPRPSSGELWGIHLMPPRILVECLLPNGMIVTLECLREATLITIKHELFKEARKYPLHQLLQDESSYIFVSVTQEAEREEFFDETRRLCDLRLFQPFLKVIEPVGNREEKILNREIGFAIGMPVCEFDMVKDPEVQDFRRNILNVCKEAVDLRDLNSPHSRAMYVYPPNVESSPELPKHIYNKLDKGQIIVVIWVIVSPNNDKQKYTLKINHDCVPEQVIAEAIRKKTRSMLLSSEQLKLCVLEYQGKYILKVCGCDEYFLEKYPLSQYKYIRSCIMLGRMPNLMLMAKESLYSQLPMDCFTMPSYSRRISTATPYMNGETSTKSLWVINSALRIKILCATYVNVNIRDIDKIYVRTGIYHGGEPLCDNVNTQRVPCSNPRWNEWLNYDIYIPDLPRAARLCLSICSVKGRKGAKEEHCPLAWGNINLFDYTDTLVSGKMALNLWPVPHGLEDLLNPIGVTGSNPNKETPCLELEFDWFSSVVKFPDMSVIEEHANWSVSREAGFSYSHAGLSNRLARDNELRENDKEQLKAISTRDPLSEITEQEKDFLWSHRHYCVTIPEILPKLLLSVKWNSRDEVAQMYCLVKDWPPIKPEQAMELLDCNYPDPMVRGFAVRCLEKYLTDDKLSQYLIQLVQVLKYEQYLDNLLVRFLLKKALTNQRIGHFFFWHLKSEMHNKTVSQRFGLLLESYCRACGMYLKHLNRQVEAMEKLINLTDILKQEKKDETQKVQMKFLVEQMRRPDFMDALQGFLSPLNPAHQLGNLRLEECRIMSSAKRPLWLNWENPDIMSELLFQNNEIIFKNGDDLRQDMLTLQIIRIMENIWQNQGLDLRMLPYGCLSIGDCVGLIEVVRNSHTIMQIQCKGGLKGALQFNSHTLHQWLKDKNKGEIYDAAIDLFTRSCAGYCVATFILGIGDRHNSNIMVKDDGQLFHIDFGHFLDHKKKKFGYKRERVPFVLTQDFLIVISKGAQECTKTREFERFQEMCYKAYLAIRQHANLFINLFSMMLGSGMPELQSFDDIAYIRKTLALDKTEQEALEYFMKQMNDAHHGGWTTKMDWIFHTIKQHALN
Phosphatidylinositol 4,5-bisphosphate 3-kinase catalytic subunit gamma isoform, sequence (P48736 whole entry, canonical isoform): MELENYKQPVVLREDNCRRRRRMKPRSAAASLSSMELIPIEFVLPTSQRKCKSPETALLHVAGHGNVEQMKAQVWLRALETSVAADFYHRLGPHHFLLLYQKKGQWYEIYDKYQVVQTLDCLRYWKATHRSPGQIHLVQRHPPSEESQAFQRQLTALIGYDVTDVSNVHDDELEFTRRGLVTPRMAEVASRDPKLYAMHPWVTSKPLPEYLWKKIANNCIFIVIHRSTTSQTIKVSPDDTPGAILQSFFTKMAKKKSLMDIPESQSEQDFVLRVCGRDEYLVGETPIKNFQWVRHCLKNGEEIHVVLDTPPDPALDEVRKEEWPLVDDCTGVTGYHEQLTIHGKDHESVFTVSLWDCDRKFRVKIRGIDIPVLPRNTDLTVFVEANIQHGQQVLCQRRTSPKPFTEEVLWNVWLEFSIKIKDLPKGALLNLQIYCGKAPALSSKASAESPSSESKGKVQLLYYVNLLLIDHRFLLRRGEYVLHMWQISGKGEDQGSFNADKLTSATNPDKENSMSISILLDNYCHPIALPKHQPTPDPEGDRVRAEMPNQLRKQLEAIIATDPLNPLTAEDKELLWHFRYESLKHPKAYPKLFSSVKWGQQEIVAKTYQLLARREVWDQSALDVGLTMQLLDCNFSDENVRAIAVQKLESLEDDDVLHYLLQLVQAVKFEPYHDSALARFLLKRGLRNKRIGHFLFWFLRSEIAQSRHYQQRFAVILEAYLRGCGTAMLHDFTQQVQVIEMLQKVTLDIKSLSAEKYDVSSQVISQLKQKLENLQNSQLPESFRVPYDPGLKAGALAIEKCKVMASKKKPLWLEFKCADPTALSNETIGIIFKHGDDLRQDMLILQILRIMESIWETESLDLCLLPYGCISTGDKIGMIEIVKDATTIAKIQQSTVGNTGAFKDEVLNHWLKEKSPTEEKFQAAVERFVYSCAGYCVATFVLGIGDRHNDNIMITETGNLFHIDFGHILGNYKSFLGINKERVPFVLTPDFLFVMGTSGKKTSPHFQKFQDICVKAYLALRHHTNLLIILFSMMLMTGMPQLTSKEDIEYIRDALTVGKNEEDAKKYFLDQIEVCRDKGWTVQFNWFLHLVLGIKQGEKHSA

| IC50 (PC-3) | clearance [2] | bioavailability [3] | CLint scaled [4] | IC50 [5] | IC50 [6] | IC50 [7] | IC50 [8] | IC50 [9] | clearance [10] | Vd [11] | bioavailability [12] | SMILES | IC50 [1] |
| --- | --- | --- | --- | --- | --- | --- | --- | --- | --- | --- | --- | --- | --- |
| 1.4 µM | 0.96 L/h/kg | 29% | 2.4 L/h/kg | 0.13 µM | 0.022 µM | – | – | – | – | – | – | CC(C)(O)c1cc2nc(-c3cccc4[nH]ncc34)nc(N3CCOCC3)c2s1 | 1.4 µM |
| 0.39 µM | – | – | – | – | – | – | – | – | – | – | – | CS(=O)(=O)N1CCN(Cc2cc3nc(-c4cccc5[nH]ncc45)nc(N4CCOCC4)c3s2)CC1 [PICTILISIB] | 0.34 µM |
| 1.5 µM | 5.16 L/h/kg | 34% | 2.4 L/h/kg | – | 0.016 µM | – | – | – | – | – | – | CC(=O)NCc1cc2nc(-c3cccc4[nH]ncc34)nc(N3CCOCC3)c2s1 | – |
| 0.021 µM | – | – | – | – | 0.0016 µM | 0.011 µM | 0.0009 µM | 0.02 µM | – | – | – | CS(=O)(=O)N1CCN(Cc2cc3nc(-c4cccc(O)c4)nc(N4CCOCC4)c3s2)CC1 | 0.036 µM |
| 3.7 µM | – | – | – | – | 0.43 µM | – | – | – | – | – | – | CS(=O)(=O)N1CCN(Cc2cc3nc(-c4ccccc4)nc(N4CCOCC4)c3s2)CC1 | 3.7 µM |
| 1.2 µM | – | – | 10.2 L/h/kg | – | 0.029 µM | – | – | – | – | – | – | OCc1cc2nc(-c3cccc4[nH]ncc34)nc(N3CCOCC3)c2s1 | – |
| 0.075 µM | – | – | – | – | 0.0018 µM | – | 0.0014 µM | – | – | – | – | CS(=O)(=O)N1CCN(Cc2cc3nc(-c4cccc(CO)c4)nc(N4CCOCC4)c3s2)CC1 | 0.32 µM |
| 0.27 µM | – | – | – | – | 0.0055 µM | 0.06 µM | 0.0066 µM | – | 0.96 L/h/kg | – | – | CS(=O)(=O)N1CCN(Cc2cc3nc(-c4ccc(N)nc4)nc(N4CCOCC4)c3s2)CC1 | 0.2 µM |
| 0.3 µM | 1.44 L/h/kg | – | – | 0.029 µM | – | 0.038 µM | 0.0024 µM | 0.0084 µM | 1.32 L/h/kg | 5.6 L/kg | 75% | CS(=O)(=O)N1CCN(Cc2cc3nc(-c4cnc(N)nc4)nc(N4CCOCC4)c3s2)CC1 | – |
| 1.8 µM | – | – | – | – | 0.021 µM | 0.014 µM | 0.012 µM | 0.019 µM | – | – | – | CS(=O)(=O)N1CCN(Cc2cc3nc(-c4cccnc4)nc(N4CCOCC4)c3s2)CC1 | 1.4 µM |
| 1.2 µM | – | – | – | – | 0.24 µM | 1.4 µM | 0.1 µM | 1.3 µM | – | – | – | CS(=O)(=O)N1CCN(Cc2cc3nc(-c4ccc(N)cc4)nc(N4CCOCC4)c3s2)CC1 | 2.7 µM |
| – | – | – | – | – | 2.9 µM | 5.4 µM | 0.31 µM | 5.1 µM | – | – | – | CS(=O)(=O)N1CCN(Cc2cc3nc(-c4ccncc4)nc(N4CCOCC4)c3s2)CC1 | – |
| 1.1 µM | 6.06 L/h/kg | 17% | 5.7 L/h/kg | – | 0.028 µM | – | – | – | – | – | – | CC(O)c1cc2nc(-c3cccc4[nH]ncc34)nc(N3CCOCC3)c2s1 (configuration not stated) | – |
| 0.23 µM | – | – | – | 0.88 µM | 0.0011 µM | 0.0062 µM | 0.0007 µM | – | – | – | – | Cc1nc(N)ncc1-c1nc(N2CCOCC2)c2sc(CN3CCN(S(C)(=O)=O)CC3)cc2n1 | 0.29 µM |
